# Results published in patent publication US7888293B2, “Compositions and methods relating to orthogonal ribosome mRNA pairs” (priority 2005, dated 2011).
# Key:
# Assay type in all cases: cell-based, E. coli
# O-mRNA-Ccat = test: Translation of cat from O-mRNA-Ccat, chloramphenicol resistance, compatible rRNA plasmids
# Excerpt: The RSF rRNA expression plasmid was derived from the previously described Col E1 expression plasmid (pTrc16S23S; Rackham & Chin, 2005, Nature Chem. Biol. 1: 159-166). The RSF1030 replicon, containing a kanamycin resistance gene, was amplified by PCR from pRSFDuet-1 (Novagen) using the oligonucleotides 5′-[…]-3′(SEQ ID NO: 120) and 5′-[…]-3′ (SEQ ID NO: 121). The resulting PCR product was digested with Kpn I and Sph I and used to replace the Kpn I, Sph I replicon-containing portion of pTrc 16S23S ribosome plasmids. CAT activity assays for orthogonal ribosome activity were performed as described in Rackham & Chin, 2005, supra).
# One vector for rRNA production has a ColE1 origin of replication and an ampicillin resistance gene and is present at about 50 copies per cell. A second vector for rRNA production has an RSF origin of replication and a kanamycin resistance gene, and is present at about 100 copies per cell. […] To ascertain the effect of plasmid flanking sequences and plasmid copy number on the activity of the O-ribosomes incorporating plasmid-encoded rRNA, the translation of the chloramphenicol acetyl transferase gene (cat) from O-mRNA-Ccat (a version of cat with the 5′ orthogonal ribosome binding site C) was measured. […]
# O-mRNA-Cα and O-mRNA-Aω = test: Boolean AND gate, β-galactosidase FDG fluorescence; details: BW26444 cells
# Method: The AND function was created in BW26444 cells, which are deleted in lacZ. Their genotype is (Δ(araD-araB)567, Δ(lacA-lacZ)519(::FRT), laclp-4000(lacl^Q), λ^−, rpoS396(Am), rph-1, Δ(rhaD-rhaB)568, hsdR514). Heat shock competent BW26444 cells containing the logic gate plasmid were prepared by standard CaCl2 treatment, and combinations of rRNA inputs accessed by double transformation. Transformed cells were recovered in SOB with 2% glucose and transferred to LB agar containing 2% glucose, 50 μg ml^−1 ampicillin, 25 μg ml^−1 kanamycin, 12.5 μg ml^−1 tetracycline and incubated (16 h, 37° C.). Individual colonies were transferred to each well of a 96 well culture block containing 100 μl of media (LB containing 2% glucose, 50 μg ml^−1 ampicillin, 25 μg ml^−1 kanamycin, 12.5 μg ml^−1 tetracycline) and grown overnight. Cells were pelleted by centrifugation (3000 g, 5 min) and resuspended in 1 ml of LB containing 50 μg ml^−1 ampicillin, 25 μg ml^−1 kanamycin, 12.5 μg ml^−1 tetracycline. After a further 1 h incubation (37° C., 250 rpm) cells were supplemented with isopropyl-β-D-thiogalactopyranoside (to 1 mM), and incubated (37° C., 250 rpm, 4 h) and the OD600 measured. […] An equal volume of 2× buffer Z (120 mM Na2HPO4, 80 mM NaH2PO4, 20 mM KCl, 2 mM MgSO4, 100 mM β-mercaptoethanol) containing fluorescein di-β-D-galactopyranoside (Molecular Probes, final concentration 0.5 mM) was added and incubated (22° C.) until a strong fluorescent signal was detected (approximately 5 min). […] Fluorescence was detected using a Spectra Max Gemini XS (Molecular Devices), with excitation at […] and emission detection at 450 nm.
# Fluorescence was normalized for cell density and time of incubation with β-galactosidase substrate, using the equation: Fluorescence=1000×(raw fluorescence450 nm)/(t.V.OD600) Where (t) is time of incubation in seconds and (V) is the volume of culture used. […]
# Cells containing a plasmid encoding both O-mRNA-Cα and O-mRNA-Aω were programmed with either wild-type rRNA, rRNA-A, rRNA-C or rRNA-C and rRNA-A together, and the conversion of FDG to fluorescein measured. […]
# O-mRNA-Aα and O-mRNA-Cα = test: Boolean OR gate, β-galactosidase FDG fluorescence; details: OR gate, DH10B
Substance,IC50 chloramphenicol resistance (O-mRNA-Ccat; ColE1 plasmid),IC50 chloramphenicol resistance (O-mRNA-Ccat; RSF plasmid),fluorescence (conversion of FDG to fluorescein) (O-mRNA-Cα and O-mRNA-Aω),fluorescence signal above background (O-mRNA-Aα and O-mRNA-Cα),fluorescence (O-mRNA-Aα and O-mRNA-Cα)
"rRNA-C: O-rRNA-C, SEQ ID NO:129, orthogonal 16S rRNA cognate to O-mRNA-C; probably rRNA-9 (AUCAUGGGAUUA; expressed or natural sequence)",150 µg/mL,250 µg/mL,low fluorescence,15 fold,–
"rRNA-A: O-rRNA-A, SEQ ID NO:125, orthogonal 16S rRNA cognate to O-mRNA-A; probably rRNA-2 (AUCACUGUGGUA; expressed or natural sequence)",–,–,low fluorescence,10 fold,–
"wild-type rRNA: wild-type 16S rRNA, SEQ ID NO:116, plasmid-encoded control input (AUCACCUCCUUA; listed as Escherichia coli) [reference compound]",–,–,low fluorescence,–,comparable to that observed in the absence of plasmid-encoded a fragment
